The source of these data is patent US7105531B2, “Tricyclic protein kinase inhibitors” (WYETH, priority 1999, dated 2006).

T1 sequence (P12931 whole entry, change not shown, the tested form may be a part): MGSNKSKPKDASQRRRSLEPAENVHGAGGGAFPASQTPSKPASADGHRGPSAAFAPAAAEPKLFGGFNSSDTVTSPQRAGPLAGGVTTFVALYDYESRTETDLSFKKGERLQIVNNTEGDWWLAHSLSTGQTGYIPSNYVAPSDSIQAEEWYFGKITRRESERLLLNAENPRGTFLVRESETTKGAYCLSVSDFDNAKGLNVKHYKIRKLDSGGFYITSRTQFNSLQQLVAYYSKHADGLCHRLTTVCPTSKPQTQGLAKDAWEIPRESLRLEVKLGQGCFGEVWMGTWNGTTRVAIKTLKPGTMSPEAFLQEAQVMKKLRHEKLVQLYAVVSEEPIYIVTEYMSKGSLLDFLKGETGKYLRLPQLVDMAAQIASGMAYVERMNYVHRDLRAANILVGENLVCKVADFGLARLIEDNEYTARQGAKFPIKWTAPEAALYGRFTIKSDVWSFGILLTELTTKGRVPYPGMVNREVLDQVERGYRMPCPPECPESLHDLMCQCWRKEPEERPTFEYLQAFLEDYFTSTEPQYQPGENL

One series has as its target T1, Rat2 fibroblasts transformed with v-Src/Hu c-Src fusion gene (Homo sapiens, UniProt P12931, cells depend on it, form not given).
T1 construct: fused on or other part: The v-Src frame of Rous sarcoma virus: everything outside the catalytic domain, namely the N-terminal unique/SH3/SH2 part; Candidates are Prague C (P00526), then Schmidt-Ruppin A (P00524)
Put plainly: Anchorage independent Src-transformed fibroblast proliferation test procedure. The conditions noted are these: @ dose 0.22 μM. It is filed as cell-based, rat. An excerpt: Anchorage Independent Src-transformed Fibroblast Proliferation Test Procedure: Rat2 fibroblasts stably transformed with a plasmid containing CMV promotor controlled v-Src/Hu c-Src fusion gene in which the catalytic domain of human c-Src is inserted in place of the v-Src catalytic domain in the v-Src gene are used for the measurement of src dependent suspension growth.
`COc1cc(Nc2c(C#N)cnc3c2C=C2N=CN=C2C3)cc(OC)c1OC` [Example 42, 8-(3,4,5-Trimethoxyanilino)imidazo[4,5-g]quinoline-7-carbonitrile]: the “Src TF prolif % Inh” value stood at 50%.

Still in this series, the particulars now being: rat2 fibroblasts transformed with v-src/hu c-src fusion gene; read-out: Src TF prolif IC50.
In the case of `COc1cc(Nc2c(C#N)cnc3cc4cc(OCCN5CCOCC5)c(OC)cc4cc23)c(Cl)cc1Cl` [Example 129, 4-(2,4-dichloro-5-methoxyanilino)-7-methoxy-8-[2-(4-morpholinyl)ethoxy]benzo[g]quinoline-3-carbonitrile], the GI50 is 0.015 µM. The same measure, in the same setting: next, `COc1cc(Nc2c(C#N)cnc3cc4cc(OCCn5nccn5)c(OC)cc4cc23)c(Cl)cc1Cl` [Example 158, 4-(2,4-Dichloro-5-methoxyphenylamino)-7-methoxy-8-(2-[1,2,3]triazol-2-yl-ethoxy)benzo[g]quinoline-3-carbonitrile]: 0.067 µM.

System in another series: not given
Assay: not given
Conditions: not given
On to `COc1cc(Nc2c(C#N)cnc3c2C=C2N=CN=C2C3)cc(OC)c1OC` [Example 42, 8-(3,4,5-Trimethoxyanilino)imidazo[4,5-g]quinoline-7-carbonitrile], for which the melting point was above 260 °C. Take `COc1cc(Nc2c(C#N)cnc3cc4cc(OCCCl)c(OC)cc4cc23)c(C)cc1Cl` [Example 122, 4-(4-chloro-5-methoxy-2-methylanilino)-7-methoxy-8-(chloroethoxy)benzo[g]quinoline-3-carbonitrile]: the melting point is 132 to 168 °C (dec.). Consider `COc1cc(Nc2c(C#N)cnc3cc4cc(OCCCl)c(OC)cc4cc23)c(Cl)cc1Cl` [Example 126, 4-(2,4-dichloro-5-methoxyanilino)-7-methoxy-8-(chloroethoxy)benzo[g]quinoline-3-carbonitrile], for which the melting point was 239 to 255 °C (dec.).

With `COc1cc2cc3c(Nc4ccc(Sc5nccn5C)c(Cl)c4)c(C#N)cnc3cc2cc1OCCCl` [Example 148, 8-(2-Chloroethoxy)-4-[3-chloro-4-(1-methyl-1H-imidazol-2-ylsulfanyl)phenylamino]-7-methoxybenzo[g]quinoline-3-carbonitrile], the melting point fell in the range of 275 to 280 °C. The compound `COc1cc2cc3c(Nc4ccc(Sc5nccn5C)c(Cl)c4)c(C#N)cnc3cc2cc1OCCN1CCOCC1` [Example 149] returned a melting point above 300 °C. On the same count and under the same terms, next, `COc1cc2cc3c(Nc4ccc(Sc5nccn5C)c(Cl)c4)c(C#N)cnc3cc2cc1OCCCCl` [Example 150, 4-[3-Chloro-4-(1-methyl-1H-imidazol-2-ylsulfanyl)phenylamino]-8-(3-chloropropoxy)-7-methoxybenzo[g]quinoline-3-carbonitrile]: above 300 °C; `COc1cc2cc3c(Nc4ccc(Sc5nccn5C)c(Cl)c4)c(C#N)cnc3cc2cc1OCCCN1CCOCC1` [Example 151, 4-[3-Chloro-4-(1-methyl-1H-imidazol-2-ylsulfanyl)phenylamino]-7-methoxy-8-(3-morpholin-4-yl-propoxy)benzo[g]quinoline-3-carbonitrile]: 230 to 235 °C; `COc1cc2cc3c(Nc4ccc(Sc5nccn5C)c(Cl)c4)c(C#N)cnc3cc2cc1OCCN1CCN(C)CC1` [Example 152, 4-[3-Chloro-4-(1-methyl-1H-imidazol-2-ylsulfanyl)phenylamino]-7-methoxy-8-[2-(4-methylpiperazin-1-yl)ethoxy]-benzo[g]quinoline-3-carbonitrile]: 184 to 186 °C. Consider `COc1cc2cc3c(Nc4ccc(Sc5nccn5C)c(Cl)c4)c(C#N)cnc3cc2cc1OCCn1ccnn1` [Example 154, 4-[3-Chloro-4-(1-methyl-1H-imidazol-2-ylsulfanyl)phenylamino]-7-methoxy-8-(2-[1,2,3]triazol-1-yl-ethoxy)benzo[g]quinoline-3-carbonitrile], for which the melting point was in the range of 201 to 207 °C. `COc1cc2cc3c(Nc4cc(OC)c(Cl)cc4Cl)c(C#N)cnc3cc2cc1O` [Example 155, 4-(2,4-Dichloro-5-methoxyphenylamino)-8-hydroxy-7-methoxybenzo[g]quinoline-3-carbonitrile] showed a melting point of 238 to 240 °C. As to `COc1cc(Nc2c(C#N)cnc3cc4cc(OCCCCl)c(OC)cc4cc23)c(Cl)cc1Cl` [Example 156, 8-(3-Chloropropoxy)-4-(2,4-dichloro-5-methoxyphenylamino)-7-methoxybenzo[g]quinoline-3-carbonitrile], the melting point was 220 to 223 °C. Consider `COc1cc2cc3c(Nc4ccc(Sc5nccn5C)c(Cl)c4)c(C#N)cnc3nc2cc1OCCCl` [Example 174, 8-(2-Chloroethoxy)-4-{3-chloro-4-[(1-methyl-1H-imidazol-2-yl)sulfanyl]anilino}-7-methoxybenzo[b][1,8]naphthyridine-3-carbonitrile], for which the melting point is > 250 °C (dec.). As for `COc1cc(Nc2c(C#N)cnc3nc4cc(OCCN5CCN(C)CC5)c(OC)cc4cc23)c(Cl)cc1Cl` [Example 175, 4-(2,4-Dichloro-5-methoxyanilino)-7-methoxy-8-[2-(4-methyl-1-piperazinyl)ethoxy]benzo[b][1,8]naphthyridine-3-carbonitrile], the melting point was 240 to 243 °C (dec.). On the same count and under the same terms, in the case of `COc1cc2cc3c(Nc4ccc(Sc5nccn5C)c(Cl)c4)c(C#N)cnc3nc2cc1OCCN1CCOCC1` [Example 176, 4-{3-Chloro-4-[(1-methyl-1H-imidazol-2-yl)sulfanyl]anilino}-7-methoxy-8-[2-(4-morpholinyl)ethoxy]benzo[b][1,8]naphthyridine-3-carbonitrile] it was 160 to 162 °C (dec.); in that of `COc1cc2cc3c(Nc4ccc(Cl)cc4Cl)c(C#N)cnc3nc2cc1OC` [Example 177, 4-(2,4-Dichloroanilino)-7,8-dimethoxybenzo[b][1,8]naphthyridine-3-carbonitrile], 266 to 270 °C (dec.); in that of `COc1cc2cc3c(Nc4cc(OC)c(OC)c(OC)c4)c(C#N)cnc3nc2cc1OC` [Example 178, 7,8-Dimethoxy-4-(3,4,5-trimethoxyanilino)benzo[b][1,8]naphthyridine-3-carbonitrile], 250 to 252 °C (dec.). Compound `CCOc1cc2cc3c(Nc4cc(OC)c(Cl)cc4C)c(C#N)cnc3cc2cc1OCCCl` [Example 179, 8-(2-Chloroethoxy)-4-(4-chloro-5-methoxy-2-methylanilino)-7-ethoxybenzo[g]quinoline-3-carbonitrile] came in with a melting point of 129 to 130 °C.

For the compound `COc1cc(Nc2c(C#N)cnc3cc4cc(OCCCl)c(OC)cc4cc23)c(Cl)cc1F` [Example 180, 8-(2-Chloroethoxy)-4-(2-chloro-4-fluoro-5-methoxyanilino)-7-methoxybenzo[g]quinoline-3-carbonitrile], the melting point fell in the range of 193 to 204 °C. Regarding `COc1cc(Nc2c(C#N)cnc3cc4cc(OCCCl)c(OC)cc4cc23)c(Cl)cc1C` [Example 182, 8-(2-Chloroethoxy)-4-(2-chloro-5-methoxy-4-methylphenylamino)-7-methoxybenzo[g]quinoline-3-carbonitrile], the melting point fell in the range of 222 to 236 °C. On the same count and under the same terms, next, `COc1cc2cc3c(Nc4ccc(F)c(Cl)c4)c(C#N)cnc3cc2cc1OCCCl` [Example 185, 8-(2-Chloroethoxy)-4-(3-chloro-4-fluoroanilino)-7-methoxybenzo[g]quinoline-3-carbonitrile]: 137 to 159 °C; `COc1cc2cc3ncc(C#N)c(Nc4ccc(OCc5ccccc5)c(Cl)c4)c3cc2cc1OCCCl` [Example 186, 4-(4-Benzyloxy-3-chlorophenylamino)-7-(2-chloroethoxy)-8-methoxybenzo[g]quinoline-3-carbonitrile]: 182 to 185 °C; `CCOC(=O)CN(CCOc1cc2cc3c(Nc4cc(OC)c(Cl)cc4C)c(C#N)cnc3cc2cc1OCC)CC(=O)OCC` [Example 192, ({2[4-(4-Chloro-5-methoxy-2-methylphenylamino)-3-cyano-8-ethoxybenzo[g]quinoline-7-yloxy]-ethyl}-ethoxycarbonylmethyl-amino)-acetic acid ethyl ester]: 70 to 71 °C.

Turning to `CCOC(=O)CN(CCOc1cc2cc3ncc(C#N)c(Nc4cc(OC)c(Cl)cc4C)c3cc2cc1OCC)CC(=O)OCC` [Example 193, ({2-[4-(4-Chloro-5-methoxy-2-methylphenylamino)-3-cyano-7-ethoxybenzo[g]quinoline-8-yloxy]-ethyl}-ethoxycarbonylmethylamino)-acetic acid ethyl ester], the melting point fell in the range of 85 to 86 °C. Consider `COc1cc2cc3c(Nc4ccc(F)c(Cl)c4)c(C#N)cnc3cc2cc1OCCN1CCOCC1` [Example 205, 4-(3-Chloro-4-fluoroanilino)-7-methoxy-8-[2-(4-morpholinyl)ethoxy]benzo[g]quinoline-3-carbonitrile], for which the melting point was in the range of 237 to 242 °C. In the case of `COc1cc2cc3c(Nc4ccc(Oc5ccccc5)c(Cl)c4)c(C#N)cnc3cc2cc1OCCN1CCOCC1` [Example 213, 4-(3-Chloro-4-phenoxyphenylamino)-7-methoxy-8-(2-morpholin-4-yl-ethoxy)benzo[g]quinoline-3-carbonitrile], the melting point was in the range of 190 to 194 °C. `COc1cc2cc3ncc(C#N)c(Nc4ccc(Oc5ccccc5)c(Cl)c4)c3cc2cc1OCCN1CCOCC1` [Example 214, 4-(3-Chloro-4-phenoxyphenylamino)-8-methoxy-7-(2-morpholin-4-yl-ethoxy)benzo[g]quinoline-3-carbonitrile] gave a melting point of 251 to 253 °C.

Regarding `COc1cc(Nc2c(C#N)cnc3cc4cc(OCc5ccccc5)c(OC)cc4cc23)c(Cl)cc1F` [Example 219, 8-(Benzyloxy)-4-[(2-chloro-4-fluoro-5-methoxyphenyl)amino]-7-methoxybenzo[g]quinoline-3-carbonitrile], the melting point was 248 to 250 °C (dec.). `COc1cc2cc3c(Nc4cc(OC)c(F)cc4Cl)c(C#N)cnc3cc2cc1O` [Example 220, 4-[(2-Chloro-4-fluoro-5-methoxyphenyl)amino]-8-hydroxy-7-methoxybenzo[g]quinoline-3-carbonitrile]: the melting point is 239 to 242 °C (dec.).
